Experimental data published in paper PMC4596572, “Ligand Discovery for the Alanine-Serine-Cysteine Transporter (ASCT2, SLC1A5) from Homology Modeling and Virtual Screening” (PLoS Computational Biology, 2015).
Like-named read-outs stand apart in the source and are kept apart here.

Experiments:
Assay type in all cases: cell-based
[1] = system: C8161 human melanoma cells; experiment: MTT cell viability assay; conditions: 5 mM
Protocol: (§1) Glutamine is a conditionally essential amino acid required for cancer cell growth, being used as fuel source for the TCA cycle, and a carbon and nitrogen source for macromolecule production. We therefore examined cell viability in the presence of chloroalanine (5 mM), AOC (5 mM) and γ-FBP (5 mM) using an MTT assay in C8161 cells (Methods).
Human melanoma cell line C8161 culture was performed as previously described. Media used was DMEM/F12 medium (Life Technologies) containing 5% (v/v) fetal bovine serum (FBS), penicillin-streptomycin solution (Sigma-Aldrich). Cells were maintained at 37°C in a fully humidified atmosphere containing 5% CO2. Inhibitors (chloroalanine, AOC and γ-FBP) were resuspended in H2O, with control cells treated with the appropriate concentrations of vehicle alone.
MTT (3–(4,5–dimethylthiazol–2–yl)–2,5–diphenyl […] bromide; Millipore) cell viability assay was performed as previously described. Briefly, C8161 cells (1 × 10^4/well) were seeded in a flat-bottomed 96–well plate, incubated overnight in media, prior to culture with or without each inhibitor. MTT solution (10 μL) was added to each well for 4 h, prior to addition of 100 μL of isopropanol/HCl solution. Solution was mixed thoroughly and plates immediately read at 570 nm/630 nm in a PolarStar plate reader (BMG). Results were plotted as percentages of the absorbance observed in control wells.

[2] = system: C8161 human melanoma cells; experiment: Annexin V/propidium iodide apoptosis assay by flow cytometry; conditions: 5 mM, 48 hours
Protocol: as §1
Cells (5 × 10^5 per well) were seeded in 24 well plates, allowed to adhere overnight, and then incubated in the presence of 5 mM chloroalanine, AOC or γ-FBP for 48 hours. Cells were detached using Tryple and resuspended in 300 μL of binding buffer (HEPES-buffered PBS supplemented with 2.5 mM calcium chloride) with Annexin V-APC (BD) and incubated for 15 min in the dark at room temperature. Propidium iodide solution (5 μg/mL) was added, and the cells were analyzed using the BD LSRFortessa and FlowJo software.

rat ASCT2 = target: T1, rat ASCT2 (Rattus norvegicus, UniProt D3ZJ25); experiment: Whole-cell patch-clamp recording of ASCT2-associated anion current in transfected HEK293 cells; conditions: for Km: apparent Km for the active compounds from anion current dose response, called Ki in text for the inhibitors L-DOPS and γ-FBP; for Imax, maximum currents relative to 1 mM alanine: whole-cell anion current, membrane potential 0 mV, internal 130 mM NaSCN and 10 mM alanine, negative = outward current (inhibitor)
T1 construct: The coding region of the cDNA was subcloned into the EcoRI site of the pBK-CMV vector; expressed in transfected cells; host or cells: HEK293 (human embryonic kidney), transient transfection, pBK-CMV vector
T1 sequence (D3ZJ25 1-555): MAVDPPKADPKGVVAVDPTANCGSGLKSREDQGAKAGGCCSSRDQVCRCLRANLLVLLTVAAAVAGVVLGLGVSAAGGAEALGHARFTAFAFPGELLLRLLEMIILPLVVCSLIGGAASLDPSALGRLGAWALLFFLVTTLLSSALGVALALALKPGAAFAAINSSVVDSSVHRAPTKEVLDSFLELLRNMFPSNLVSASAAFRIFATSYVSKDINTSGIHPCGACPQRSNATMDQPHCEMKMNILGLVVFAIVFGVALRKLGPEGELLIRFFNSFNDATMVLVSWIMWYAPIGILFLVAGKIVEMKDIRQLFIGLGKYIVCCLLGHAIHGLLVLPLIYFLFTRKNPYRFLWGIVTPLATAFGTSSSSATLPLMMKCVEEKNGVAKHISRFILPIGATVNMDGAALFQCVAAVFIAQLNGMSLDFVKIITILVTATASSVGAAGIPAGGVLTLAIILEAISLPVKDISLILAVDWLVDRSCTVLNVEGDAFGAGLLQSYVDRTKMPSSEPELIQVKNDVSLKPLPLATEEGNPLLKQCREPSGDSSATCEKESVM
Description: We used transporter-mediated anion current as a measure of transport/inhibition activity […] We have previously shown that anion current is a measure of transport activity, due to the kinetic coupling of transport and anion flux, and this fact is also well established for the homologous glutamate transporters, which have a much more rigorously determined pharmacology. Anion current is activated when the transporter visits certain states in the transport cycle, such as the fully Na^+/substrate occupied state (substrate-induced anion conductance), or the Na^+-bound state (leak conductance). Thus, transported substrates induce anion current and non-transported inhibitors block the leak anion current. […] Functional characterization by patch clamping is a powerful approach when combined with virtual screening that prioritizes molecules from large libraries, but precludes screening of large amounts of compounds due to its labor-intensive nature.
cDNA coding for rat ASCT2 was kindly provided by S. Bröer. The coding region of the cDNA was subcloned into the EcoRI site of the pBK-CMV vector (Stratagene). The cDNA construct was used to transiently transfect human embryonic kidney cells (HEK293, ATCC No. CGL 1573) with leptrime reagent (Polyplus, Ilkrich, France). Transfection was performed as detailed in the supplier’s instructions. Electrophysiological recordings were performed 24–48 h after transfection.
ASCT2-associated whole-cell currents were recorded with an Adams & List EPC7 amplifier (HEKA, Lambrecht, Germany) using voltage-clamp conditions. Open-tip electrode resistances were 2–3 MΩ and the series resistance (R S) was 5–8 MΩ. R S was not compensated in the recordings, as compensation had no effect on the magnitude of the observed currents. The extracellular bath solution contained (in mM): 140 NaMES, 2 MgGluconate2, 2 CaGluconate2, and 10 HEPES (MES = methanesulfonic acid, pH 7.4 / NaOH). The pipette solution contained (in mM): 130 NaSCN, 2 MgCl2, 10 EGTA, 10 HEPES, and 10 L-alanine/cysteine (pH 7.3 / NaOH). Using this intracellular solution, the transporters operate in the Na^+/alanine exchange mode. Here, external alanine is exchanged with internal alanine in the absence of net transport. The exchange mode is associated with the activation of an uncoupled anion current, which was used as an indirect measure of transport activity. The currents were low pass filtered at 3 kHz (EPC7 built-in filter) and digitized with a digitizer board (Digidata 1200, Axon Instruments, Foster City, CA, USA) at a sampling rate of 10–50 kHz (controlled by software, Axon PClamp7). All experiments were performed at room temperature. Rapid solution exchange was essentially performed as described previously. Briefly, substrates and inhibitors were applied to the ASCT2-expressing HEK293 cells with a quartz tube (350 μm tube diameter) positioned at a distance of ≈0.5 mm to the cell. The linear flow rate of the solutions emerging from the opening of the tube was approximately 5–10 cm/s.

SMILES | Cell viability (MTT) [1] | Apoptosis (early Annexin V+PI-, late Annexin V+PI+) [2] | Km (rat ASCT2) [µM] | Imax, maximum currents relative to 1 mM alanine (rat ASCT2) | Ki (rat ASCT2; absence of alanine, read-out: apparent Ki in the absence of alanine) [µM] | Concentration down to which alanine activation is alleviated (rat ASCT2; alanine + compound) [µM] | Ki (rat ASCT2; alanine-induced currents (100 μM alanine), read-out: Ki in the presence of alanine) [µM] | Response relative to saturating [alanine] (rat ASCT2; outward current) | Anion current response / ligand character (rat ASCT2; whole-cell current, result in words)
NC1(C(=O)O)COC1 | significantly inhibited cell viability | neither AOC nor γ-FBP led to a significant increase | 220 ± 20 | 1.17 ± 0.13 | – | – | – | – | –
O=C(O)C1CC(Cc2ccccc2F)CN1 (centres unmarked) [γ-FBP] | significantly inhibited cell viability | neither AOC nor γ-FBP led to a significant increase | 87 ± 22 | -0.64 ± 0.13 | 87 ± 22 | ≥ 100 | 250 ± 75 | -0.64 ± 0.13 | –
NC(CCl)C(=O)O (centres unmarked) [Chloroalanine] | significantly inhibited cell viability | significantly increased apoptosis | 900 ± 120 | 1.28 ± 0.22 | – | – | – | – | activated inwardly-directed anion currents
